The structures appear in SMILES notation. The source made the active and inactive calls.

Experiment [1] deals with Staphylococcus aureus. Briefly: Antimicrobial activity against recA-deficient Staphylococcus aureus ASAU022 infected in in vitro hollow fiber infection model assessed as suppression of microbial resistance at AUC/MIC ratio of >23. The class given is functional, organism-based.
Experiment [2] relates to Staphylococcus aureus. Briefly: Antimicrobial activity against recA-deficient Staphylococcus aureus ASAU022 after 24 hrs by modified broth macrodilution method. The conditions noted are these: ASAU022, 24 h.
Another experiment relates to Escherichia coli. The experiment in a line: Antimicrobial activity against recA-deficient Escherichia coli MG1655 after 24 hrs by modified broth macrodilution method. The class given is functional. The conditions noted are these: MG1655, 24 h.
Experiment [3] relates to Staphylococcus aureus. Briefly: Bactericidal activity against recA-deficient Staphylococcus aureus ASAU022 assessed as induction of increase bacterial kill rate at 2 times MIC by time kill study. The class given is functional, organism-based.
The test system of experiment [4] is Staphylococcus aureus. The experiment in a line: Antimicrobial activity against recA-deficient Staphylococcus aureus ASAU022 infected in in vitro hollow fiber infection model assessed as suppression of microbial resistance at AUC/MIC ratio of 31. The class given is functional, organism-based.
The subject of experiment [5] is Staphylococcus aureus. Briefly: Antimicrobial activity against methicillin-resistant Staphylococcus aureus ASAU021 after 24 hrs by modified broth macrodilution method. The conditions noted are these: ASAU021, 24 h.
Experiment [6] concerns Staphylococcus aureus. Briefly: Bactericidal activity against recA-deficient Staphylococcus aureus ASAU022 assessed as induction of slow growth rate at 0.5 times MIC by time kill study. The class given is functional, organism-based.
The subject of experiment [7] is Staphylococcus aureus. The experiment in a line: Antimicrobial activity against methicillin-resistant Staphylococcus aureus ASAU021 infected in in vitro hollow fiber infection model assessed as suppression of microbial resistance at AUC/MIC ratio of >32. The class given is functional, organism-based.

Usually MIC stands for the smallest concentration in the dilution series that meets the test's criterion for growth inhibition. A high value points to weaker potency. In the case of `C[C@H]1COc2c(N3CCN(C)CC3)c(F)cc3c(=O)c(C(=O)O)cn1c23.C[C@H]1COc2c(N3CCN(C)CC3)c(F)cc3c(=O)c(C(=O)O)cn1c23.O` [LEVOFLOXACIN], the result in the experiment with Staphylococcus aureus [1], in the experiment with Staphylococcus aureus [4] and with Staphylococcus aureus [7] was Active. In addition, the MIC in the experiment with Staphylococcus aureus [2] amounted to 0.25 mg/L; against Escherichia coli it was 0.004 mg/L; in the experiment with Staphylococcus aureus [5] it was 1 mg/L. Besides, the inhibition entry with Staphylococcus aureus [3] and in the experiment with Staphylococcus aureus [6] was “Active” in each case.

The values are drawn from ChEMBL document CHEMBL1671737, “Impact of recA on levofloxacin exposure-related resistance development” (2010).
